In one assay the test system is enzymes of the KASI type. Particulars: in the presence of 5 μM cerulenin; cited from earlier work.
In another assay the target is T1, clKASIV (Cuphea lanceolata, UniProt Q949J2).
T1 sequence (Q949J2 106-538): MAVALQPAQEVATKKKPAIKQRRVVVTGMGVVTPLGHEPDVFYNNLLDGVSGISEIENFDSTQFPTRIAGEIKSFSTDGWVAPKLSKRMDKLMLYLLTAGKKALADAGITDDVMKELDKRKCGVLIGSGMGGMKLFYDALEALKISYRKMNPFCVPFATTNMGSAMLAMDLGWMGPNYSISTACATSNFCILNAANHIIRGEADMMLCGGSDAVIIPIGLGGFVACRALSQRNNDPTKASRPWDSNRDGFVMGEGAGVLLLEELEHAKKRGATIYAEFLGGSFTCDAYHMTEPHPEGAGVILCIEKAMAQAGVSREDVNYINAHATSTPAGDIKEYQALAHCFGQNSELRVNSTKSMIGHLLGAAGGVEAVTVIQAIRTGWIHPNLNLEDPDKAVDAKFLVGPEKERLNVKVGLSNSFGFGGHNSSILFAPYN
In words: Enzyme assay: sensitivity of recombinant clKASIV to cerulenin. Particulars: condensation assay with [2-14C]-malonyl-ACP. It counts as biochemical. As to the method: The substrate specificities of the recombinant KASII and KASIV enzymes was investigated by incorporating radioactivity of [2-1^4C]-malonyl-ACP into the condensation products. The batch ([…]) contained 100 mM sodium phosphate, pH 7.6, 10 µM acyl-ACP with a specific chain length, 7.5 μM [2-^14C]-malonyl-ACP (0.74 MBq/mmol), 2 mM NADPH, 2 mM DTT, 0.6 Fkat of affinity-purified recombinant GST-β-ketoacyl-ACP-reductase fusion protein of C. lanceolata (Klein et al. (1992) Mol. Gen. Genet. 233:122-128) and 2 μg of the recombinant KASII/IV preparation. The β-hydroxyacyl-ACPs that were synthesized were precipitated, washed and dissolved as described by Winter et al. (1997) Biochem. J 321:313-318 and then separated by a 2.5 M urea-PAGE. After transfer to an Immobilon P membrane by electroblotting at 0.8 mA/cm for one hour, the reaction products were visualized by autoradiography after five-day exposure on an x-ray film (Hyperfilm MP, Amersham, Braunschweig, Germany).
In the assays, saturated acyl-ACP (C4 through C16) was added to the reaction mixture together with [2- ^4C]-malonyl-ACP and was incubated for ten minutes. Incorporation of the radioactivity from [2- ^4C]-malonyl-ACP into the O-ketoacyl-ACP product, which was reduced to β-hydroxyacyl-ACP for the analysis, was determined. […]

Usually IC50 stands for the concentration at which inhibition is half-maximal.

`C/C=C/C/C=C/CCC(=O)[C@H]1O[C@H]1C(N)=O` [cerulenin, Cerulenin]: the “inactivation of enzymes of the KASI type by cerulenin” value in the assay on enzymes of the KASI type is recorded as “completely inactivated”. Moreover, on clKASIV, the IC50 was determined as 20 µM.

The values are drawn from patent US20030054524A1, “Method of increasing the fatty acid content in plant seeds” (priority 1999, published 2003).
